Experimental data published in patent US20250367283A1, “MEVALONATE PATHWAY INHIBITOR AS HIGHLY-EFFICIENT VACCINE ADJUVANT” (Tsinghua University, priority 2015, published 2025).

Experiments:
MDA-MB-231 cells = experiment: MDA-MB-231 proliferation MTT test; assay type: cell-based, human; conditions: 72 hours
Procedure: • Drug dissolution: […] The prepared bisphosphonate stock solution was diluted with DMEM complete medium. The maximum concentration was 1 mM. The dilution was performed serially in a ratio of 1:3.2 with a total of 11 concentration gradients; a. MDA-MB-231 cells were digested the day before. Centrifugation was performed at 1000 rmp for 3 min. The cells were counted. The cells were seeded into a 96-well plate at 3000 cells/well in a volume of 100 μl per well and cultured for 14-16 h. It should be noted that the cell count should be accurate, and the amount of cells seeded per well should be consistent. The cell suspension can be gently shaken in the intermittence of plating, or a row of cells were plated and the cell suspension was pipetted gently with a pipette. The speed of pipetting into the 96-well plate with a pipette should not be too fast or too slow, in order to avoid uneven distribution of cells in the plate, affecting the experiments; the wells at the fringe of the 96-well plate will evaporate slightly faster and the concentration of the solution will change slightly faster. Under normal situation, the central 60 wells should be selected for stimulation. Also, the pipetted liquid should be prevented from creating bubbles. b. After the cells had adhered, the liquid in the 96-well plate was pipetted out and discarded. […] c. 72 hours after the action of drug, the prepared MTT solution (immediately before use, a certain amount of MTT powder was weighed and dissolved in PBS at 5 mg/ml, under dark, filter with 0.22 filter membrane) was added directly to each well with 20 μl per well and continued to culture for 4 hours; d. The filter paper (which can be replaced by an absorbent paper) was laid, and the plate was inverted gently (be careful to prevent the crystal in the well from dropping). After the liquid in the wells was removed, 150 μl of DMSO was added to dissolve the crystals, and the mixture was shaken thoroughly with a shaker for a period of time just to dissolve the crystals. The absorbance (OD value) of each well was measured at 570 nm with ELIASA. The mean value of blank control was calculated as OD Blank. OD value for each well=OD measured-OD Blank. ODNT mean value was calculated. […] Mean and standard error were then calculated. The mean and standard error of each group of drug concentration (uM) and corresponding drug inhibition rate were fitted by Graph Prism software to obtain the IC50 of the drug.

anti-OVA IgG = experiment: Comparison with existing adjuvants: IgG titer after boost; assay type: in vivo, mice; conditions: 100 μg adjuvant, intramuscular, 7th day after third immunization
[1] = tested on: B lymphocytes, T lymphocytes, macrophages and dendritic cells in lymph nodes; experiment: Recruitment of cells in lymph nodes after immunization; assay type: in vivo, mice; conditions: 24 hours after subcutaneous immunization, vs Ctrl and PBS
Procedure: Method: Following an similar procedure of example 1, OVA was used as antigen and three inhibitor compounds, simvastatin, TH-Z80, and TH-Z145 were added as adjuvants, respectively. The OVA antigen and adjuvant were mixed at 1:1 and used for immunizing mice by subcutaneous injection. 24 hours after immunization, inguinal lymph nodes ipsilateral to the immunization were removed and separated through a 100 mesh screen into single-cell suspension. Flow cytometry was used to determine changes of the proportions and numbers of B lymphocytes, T lymphocytes, macrophages and dendritic cells in lymph nodes. The marker of the B lymphocyte was B220, the marker of the T lymphocyte was CD3, the markers of the macrophage were CD11b and F4/80, and the marker of the dendritic cell was CD11c.

anti-OVA serum antibody = experiment: OVA immunization with bisphosphonates (Example 15), serum antibody titer; assay type: in vivo, mice; conditions: 100 μg, intramuscular, 14 days
Procedure: During the immunization, the antigen we used was ovalbumin (OVA). Mice were c57bl/6 female mice at the age of 8 weeks. OVA was formulated at a concentration of 1 mg/ml and bisphosphonate concentration was 1 mg/ml. OVA and bisphosphonates were mixed at a ratio of 1:1 at the time of immunization. Mice were injected intramuscularly with […]. 100 μg of OVA and 100 μg of bisphosphonate per mouse. 14 days after immunization, 100 μl of orbital blood was taken from each mouse.
The whole blood which had been obtained was placed in a 4° C. freezer overnight. The next day, the whole blood at 4° C. was centrifuged at a speed of 6000 rpm at a temperature of 4° C. for 5 minutes. After the centrifugation, the upper serum was carefully taken out and centrifuged again at a speed of 6000 rpm at a temperature of 4° C. for 5 minutes. The upper serum was taken again. Serum was frozen and stored at-20° C. and thawed when tested.
1. Coating: antigen OVA was diluted to a protein content of 2 μg/ml with 0.05M pH 9.6 carbonate coating buffer. Each reaction well of a polystyrene plate was coated with 50 μl of the solution overnight at 4° C. or 2 h at 37° C. […]
7. On an ELISA detector, the OD value was read at 490 nm. Titers of serum antibody were calculated. Serum dilutions were calculated as titers of serum antibody based on an OD value greater than or equal to 1.5 times of the reading of the negative control well.

Vγ9Vδ2 T cells = experiment: Expansion of Vγ9Vδ2 T cells from PBMCs; assay type: cell-based, human; conditions: 4 μM bisphosphonate, 200 U/mL rIL-2, day 12
Procedure: Human peripheral blood mononuclear cells (PBMCs) were prepared from healthy volunteers by Ficoll-Hypaque density gradient centrifugation. […] Cells were harvested on day 12 and stained with FITC-anti-CD3 (Miltenyi Biotec) and PE-anti-[…] (Miltenyi Biotec) monoclonal antibodies. Flow cytometry was used for detection. Prism 5.0 was used to analyze the data.

PR8 influenza virus = PR8 influenza virus challenge after HA1 immunization; assay type: in vivo, mice; conditions: 20 micrograms adjuvant with 5 micrograms HA1, intramuscular
Procedure: Method: 5 micrograms of hemagglutinin protein (HA1) in the PR8 influenza virus was added to phosphate buffer, 20 micrograms of simvastatin, 20 micrograms of TH-Z80, 20 micrograms of TH-Z93 and 20 micrograms of TH-Z145, respectively. And mice were injected intramuscularly for immunization on day 0, day 14 and day 21. Nasal mucosa of mice was inoculated with PR8 virus on day 28. And then the weight of the mice was weighed daily and the death of the mice was observed.

CCCCCCCOc1ccc2c(c1)ncn2CC(O)(P(=O)(O)O)P(=O)(O)O [TH-Z152]
IC50 (MDA-MB-231 cells): 428 µM

CCCCCCOc1ccc2c(c1)ncn2CC(O)(P(=O)(O)O)P(=O)(O)O [TH-Z80]
IC50 (MDA-MB-231 cells): 75.5 µM | IgG antibody titer after boost vs PBS control (anti-OVA IgG): significantly high titers | proportions and numbers of B lymphocytes, T lymphocytes, macrophages and dendritic cells in lymph nodes [1]: significantly increased | antibody titers vs conventional bisphosphonates (anti-OVA serum antibody): higher titers of antibodies than conventional bisphosphonates | amplification effect on Vγ9Vδ2 T cells (Vγ9Vδ2 T cells): best amplification effect on Vγ9Vδ2 T cells | body weight and death after PR8 virus inoculation (PR8 influenza virus): did not lose weight nor died

CCC(C)(C)C(=O)O[C@H]1C[C@@H](C)C=C2C=C[C@H](C)[C@H](CC[C@@H]3C[C@@H](O)CC(=O)O3)[C@H]21 [simvastatin, reference compound]
IgG antibody titer after boost vs PBS control (anti-OVA IgG): significantly high titers | proportions and numbers of B lymphocytes, T lymphocytes, macrophages and dendritic cells in lymph nodes [1]: significantly increased | body weight and death after PR8 virus inoculation (PR8 influenza virus): did not lose weight nor died

CCCCCCCCCOc1ccc2c(c1)ncn2CC(O)(P(=O)(O)O)P(=O)(O)O [TH-Z153]
IC50 (MDA-MB-231 cells): 234 µM

(2-(3-(octyloxy)phenyl)ethane-1,1-diyl)bisphosphonic acid [TH-Z145]
IgG antibody titer after boost vs PBS control (anti-OVA IgG): significantly high titers | proportions and numbers of B lymphocytes, T lymphocytes, macrophages and dendritic cells in lymph nodes [1]: significantly increased | body weight and death after PR8 virus inoculation (PR8 influenza virus): did not lose weight nor died

CCCCCCCCOc1ccc2c(c1)ncn2CC(O)(P(=O)(O)O)P(=O)(O)O [TH-Z81]
IC50 (MDA-MB-231 cells): 59.6 µM | adjuvant effect by carbon chain length of the side chain (anti-OVA serum antibody): strongest effect as an adjuvant

CCCCCCOc1ccnc(NC(P(=O)(O)O)P(=O)(O)O)c1 [TH-Z93, (((4-(hexyloxy)pyridin-2-yl)amino)methylene)bisphosphonic acid]
IgG antibody titer after boost vs PBS control (anti-OVA IgG): significantly high titers | body weight and death after PR8 virus inoculation (PR8 influenza virus): did not lose weight nor died
